# Measured values published in article PMC12498288 (Frontiers in Immunology, 2025).
# Where “and” joins values, the source holds several entries; their conditions need not be identical. Identical values can stand only once. Like-named read-outs stand apart in the source and are kept apart here.
# What was measured:
# [1] = Pharmacokinetics after a single oral dose in Syrian hamsters (serum, HPLC-MS/MS); type: in vivo; details: for C(24 h): mean concentration at 24 h; for Cmax / AUC / Tmax / half-life: po
# Source text: Zapnometinib was synthesized by Chemcon GmbH (Freiburg, Germany). Before administration to Syrian hamsters, it was freshly dissolved in dimethyl sulfoxide (DMSO) (Carl Roth GmbH, Karlsruhe, Germany) and then further dissolved in 15% Kolliphor EL (Sigma-Aldrich, Germany) and 80% phosphate-buffered saline (PBS) (Gibco, Life Technology Europe B.V., Bleiswijk, the Netherlands). Kolliphor EL is used to emulsify and solubilize oils and other water in-soluble substances, it has been used as a pharmaceutical solvent for numerous drugs and has proven in previous in vivo studies with zapnometinib. Zapnometinib was administered orally at the indicated doses in a volume of 500 μL/150 g body weight using a gavage needle.
# Drug administration and blood sampling in Syrian hamsters were performed by Viroclinics Xplore (Schaijk, the Netherlands) and are described in the sections “Drug administration” and “Sampling after inoculation”. Specifically, at different time points (0, 0.5, 1, 2, 4, 8, 12, and 24 h) after the administration of a single dose of zapnometinib (15, 30, or 60 mg/kg per oral (p.o.)), ~200 µL blood was collected retro-orbitally from three animals per time point per dose and alternating animals between time points (except at 24 h, n = 6 per group) under isoflurane anesthesia using a heparinized capillary tube containing a clot activator (Microvette 500 Z-Gel, Sarstedt). Serum was collected by centrifuging the tubes at 4000 x g for 10 min, aliquoted, and stored at < -70°C until pharmacokinetic analysis. Daily clinical observations included monitoring of signs such as ruffled fur, hunched back posture, accelerated breathing and lethargy, and the body weight was monitored before and 24 h post administration.
# Bioanalysis and pharmacokinetic evaluation were performed at Prolytic GmbH (Frankfurt, Germany). […] liquid chromatography tandem mass spectrometry (HPLC-MS/MS) was employed to determine the concentration of zapnometinib in hamster serum in accordance with the company’s SOPs. During the analytical phase, two batches were evaluated. The acceptance criteria for the calibration standards and quality control (QC) samples were fulfilled for both batches as per the company’s SOPs. […] In total, 81 study test samples were analyzed. The validity of the method during the analysis of the test samples was ensured by assaying QC samples with known concentrations of zapnometinib; zapnometinib 13C6 was used as the internal standard. The lower limit of quantification (LLOQ) of the method was determined to be 10 ng/mL for zapnometinib in undiluted serum. All serum concentrations falling below LLOQ were assigned a value of 0. ANALYST software was used to calculate the concentrations of the test and QC samples based on the corresponding calibration curves. The obtained mean serum concentrations were used for noncompartmental pharmacokinetic evaluation with Phoenix® WinNonLin software (Pharsight Corporation, Mountain View, CA, USA; version 8.1).
# [2] = test system: SARS-CoV-2 Omicron B1.1.592; experiment: microbe, parasite or virus in culture; type: cell-based; details: Severe acute respiratory syndrome coronavirus 2, Calu-3, 24 h
# [3] = LDH cytotoxicity assay, CC50 determination on Calu-3 cells; type: cell-based; details: human
# Protocol: In short, 2x10^4 Calu-3 cells were seeded per well in 96-well cell culture plates in IMDM medium containing 10% FBS, 100 units/mL penicillin, and 100 µg/mL streptomycin two days before treatment. Prior to the treatment, the medium was removed, and the cells were washed once with PBS. The cells were subsequently treated in quadruplicates with 600, 500, 400, 350, 300, 250, 200, 150, or 100 µM zapnometinib dissolved in DMSO and diluted in IMDM medium containing 5% FBS, 100 units/mL penicillin, and 100 µg/mL streptomycin. The DMSO concentration upon treatment was 1%. A DMSO control was supplied with 1% DMSO (without zapnometinib). An untreated control (spontaneous LDH release control) was supplied with cell culture medium (5% FBS). Viability assessment with LDH assay was performed after 24 and 48 h treatment. Therefore, 10 µL 10X Lysis Buffer were added to one well of each quadruplicate treatment set (maximum LDH release control) and the plates were incubated 45 min at 37 °C and 5% CO2. […] After 30 min incubation in the dark at RT, 50 µL stop solution were added to the wells and the absorbance was read at 490 nm and 680 nm. The absorbance measured at 680 nm was subtracted from the absorbance at 490 nm and the %Viability was calculated using the following formula: […]
# [4] = Syrian, hamster, serum, 15 mg/kg p.o. single dose
# [5] = Syrian, hamster, serum, 30 mg/kg p.o. single dose
# [6] = hamster, serum, 60 mg/kg p.o. single dose
# [7] = single doses of 15, 30 or 60 mg/kg p.o.
smiles,measurement,setting,value
O=C(O)c1ccc(F)c(F)c1Nc1ccc(I)cc1Cl [zapnometinib],C(24 h),[1]; 15 mg/kg p.o. single dose,0.26 µM
same,C(24 h),[1]; 30 mg/kg p.o. single dose,0.55 µM
same,Cmax,"[1]; Syrian, hamster, 15 mg/kg p.o. single dose, serum",85100 ng/mL and 34.8 µM
same,Cmax,"[1]; Syrian, hamster, 30 mg/kg p.o. single dose, serum",53.9 µM
same,concentration at 24 h,"[1]; Syrian, hamster, serum, oral, 60 mg/kg p.o. single dose, read-out: concentration of zapnometinib after 24 h",5320 ng/mL and 13 µM
same,AUC,[1]; [4],672 µg·h/mL
same,Tmax,[1]; [4],2 h
same,half-life,"[1]; Syrian, hamster, serum, 15 mg/kg p.o. single dose, read-out: T1/2 (converted)",164 min
same,AUC,[1]; [5],1230 µg·h/mL
same,Tmax,[1]; [5],2 h
same,half-life,"[1]; Syrian, hamster, serum, 30 mg/kg p.o. single dose, read-out: T1/2 (converted)",165 min
same,half-life,"[1]; Syrian, hamster, serum, all dose groups (15, 30, 60 mg/kg p.o.), read-out: apparent terminal half-life",120 to 180 min
same,Cmax,"[1]; hamster, 30 mg/kg p.o. single dose, serum",132 µg/mL
same,Cmax,"[1]; hamster, 60 mg/kg p.o. single dose, serum",242000 ng/mL and 99.2 µM
same,AUC,[1]; [6],2970 µg·h/mL
same,Tmax,[1]; [6],4 h
same,half-life,"[1]; hamster, serum, 60 mg/kg p.o. single dose, read-out: T1/2 (converted)",184 min
same,adverse events,[1]; [7],no adverse events were reported
same,tolerability,[1]; [7],well tolerated
same,EC50,[2],37.9 µM and 15.5 µg/mL
same,CC50 at 24 h,[3]; 24 h treatment,532 µM and 218 µg/mL
same,CC50 at 48 h,[3]; 48 h treatment,471 µM and 193 µg/mL
